This is an account of results in US20100267561A1, “HERBICIDAL PYRIDAZINONE DERIVATIVES” (priority 2007, published 2010).

Assay type in all cases: in vivo
The test system of assay [1] is winter barley (Hordeum vulgare). Put plainly: Test C pre-/postemergence plant response. As to conditions: Preemergence. The method, boiled down:
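Formulated in a surfactant-containing non-phytotoxic solvent, compounds were tested under controlled growth conditions as preemergence and postemergence treatments. Ratings from 0 (no effect) to 100 (complete control) were assigned visually relative to controls 15 to 25 days later.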

The test system of assay [2] is blackgrass (Alopecurus myosuroides). Put plainly: Test A pre-/postemergence plant response. The method, boiled down:
(§1)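 Ratings run 0–100 (100 = complete control), assigned visually against untreated controls roughly 10 days after treatment in a greenhouse. Compounds, formulated in non-phytotoxic solvent containing surfactant, were applied as a soil-directed preemergence spray and concurrently postemergence to one- to two-leaf plants 2–10 cm tall.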

Assay [3] relates to canarygrass (Phalaris minor). Put plainly: Test A pre-/postemergence plant response. Put shortly:
as §1

Where [4] appears, read: 8 g ai/ha, scale 0 to 100 (0 no effect, 100 complete control).
[5] abbreviates: 16 g ai/ha, scale 0 to 100 (0 no effect, 100 complete control).
Where [6] appears, read: 31 g ai/ha, scale 0 to 100 (0 no effect, 100 complete control).
[7] abbreviates: 62 g ai/ha, scale 0 to 100, 0 no effect, 100 complete control.
The mark [8] stands for this setting: Postemergence, 31 g ai/ha, 0 to 100 scale, 0 no effect, 100 complete control.
[9] abbreviates: Postemergence, 125 g ai/ha, 0 to 100 scale, 0 no effect, 100 complete control.
Setting [10] is: Preemergence, 31 g ai/ha, 0 to 100 scale, 0 is no effect, 100 is complete control.
The mark [11] stands for this setting: Preemergence, 125 g ai/ha, 0 to 100 scale (0 no effect, 100 complete control).
Where [12] appears, read: Postemergence, 500 g ai/ha, 0 to 100 scale, 0 no effect, 100 complete control.
Setting [13] is: Preemergence, 500 g ai/ha, 0 to 100 scale (0 no effect, 100 complete control).

Molecules are shown by their SMILES.

`Cc1cc(-c2ccc(Cl)cc2)nn1-c1c(OS(=O)(=O)c2cccc3ccccc23)cnn(C)c1=O` [Compound 47]: the “Plant response rating, Barley, Winter” value worked out at 0 in assay [1] (setting [4]), 20 in assay [1] (setting [5]), 40 in assay [1] (setting [6]) and 40 in assay [1] (setting [7]).
For `Cc1cc(-c2ccc(Cl)cc2)nn1-c1c(OC(=O)c2cccs2)cnn(C)c1=O` [Compound 52], the “Plant response rating, Barley, Winter” value in assay [1] (setting [4]) came to 0; in assay [1] (setting [5]) it was 0; in assay [1] (setting [6]), 0; in assay [1] (setting [7]), 50.
With `Cc1cc(-c2ccc(Cl)cc2)nn1-c1c(OS(=O)(=O)c2ccc(Cl)s2)cnn(C)c1=O` [Compound 55], the “Plant response rating, Barley, Winter” value is listed as 0 in assay [1] (setting [4]), 0 in assay [1] (setting [5]), 0 in assay [1] (setting [6]) and 60 in assay [1] (setting [7]).
`CCCc1cc(-c2ccc(C(F)(F)F)cc2)nn1-c1c(O)cnn(C)c1=O` [Compound 72]: the “Plant response rating, Blackgrass” value in assay [2] (setting [8]) turned out to be 80; in assay [2] (setting [9]) it was 100; in assay [2] (setting [10]), 70; in assay [2] (setting [11]), 100. Also, the “Plant response rating, Canarygrass” value in assay [3] (setting [8]) was 40; in assay [3] (setting [9]), 100; in assay [3] (setting [10]) it was 50; in assay [3] (setting [11]), 80.
In the case of `CCc1cc(-c2ccc(Br)cc2)nn1-c1c(O)cnn(CC(F)(F)F)c1=O` [Compound 73], the “Plant response rating, Blackgrass” value in assay [2] (setting [8]) turned out to be 90; in assay [2] (setting [9]), 90; in assay [2] (setting [10]), 60; in assay [2] (setting [11]), 90. For the same compound, the “Plant response rating, Canarygrass” value is 20 in assay [3] (setting [8]), 100 in assay [3] (setting [9]) and 30 in assay [3] (setting [10]).
Take `CCc1cc(-c2ccc(Br)cc2)nn1-c1c(O)c(C)nn(C)c1=O` [Compound 74]: the “Plant response rating, Blackgrass” value in assay [2] (setting [8]), in assay [2] (setting [9]), in assay [2] (setting [10]) and in assay [2] (setting [11]) was 100 throughout. Also, the “Plant response rating, Canarygrass” value in assay [3] (setting [8]) was found to be 100; in assay [3] (setting [9]) it was 100; in assay [3] (setting [10]) it was 80; in assay [3] (setting [11]), 100.
Take `CCCc1cc(-c2ccc(Cl)cc2)nn1-c1c(O)cnn(C)c1=O` [Compound 76]: the “Plant response rating, Blackgrass” value in assay [2] (setting [8]) is 90; in assay [2] (setting [9]), 100; in assay [2] (setting [11]), 90. For the same compound, the “Plant response rating, Canarygrass” value is reported as 40 in assay [3] (setting [8]), 100 in assay [3] (setting [9]), 30 in assay [3] (setting [10]) and 70 in assay [3] (setting [11]).
As to `Cc1cc(-c2ccc(Br)cc2)nn1-c1c(O)cnn(C2CCCCO2)c1=O` (stereo not shown) [Compound 77, 4-[3-(4-bromophenyl)-5-methyl-1H-pyrazol-1-yl]-5-hydroxy-2-(tetrahydro-2H-pyran-2-yl)-3(2H)-pyridazinone], the “Plant response rating, Blackgrass” value in assay [2] (setting [9]) was found to be 100; in assay [2] (setting [12]) it was 100; in assay [2] (setting [11]), 80; in assay [2] (setting [13]) it was 100. The “Plant response rating, Canarygrass” value is on record as 60 in assay [3] (setting [9]), 100 in assay [3] (setting [12]) and 90 in assay [3] (setting [13]).
